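48-hour exposure; five concentrations; linearly interpolated endpoints. GI50 = concentration required for 50% inhibition of growth.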 The source made the active and inactive calls. Rule as the data show it: active = GI50 up to about 1.1 µM and inactive = higher.
Assays:
Test in all cases: NCI tumour cell line growth inhibition, 48 h
[1] = system: A549
[2] = system: SNB-75
[3] = system: UACC-257
[4] = system: UO-31
[5] = system: HCT-116
[6] = system: MOLT-4
[7] = system: HCT-15
[8] = system: DU-145
[9] = system: K562
[10] = system: MDA-MB-435
[11] = system: OVCAR-4
[12] = system: M14
[13] = system: PC-3
[14] = system: Malme-3M
[15] = system: LOX IMVI
[16] = system: SK-MEL-2
[17] = system: SW-620
[18] = system: SF-295
[19] = system: CCRF-CEM
[20] = system: MDA-N
[21] = system: Hs-578T
[22] = system: BT-549
[23] = system: SK-MEL-28
[24] = system: MCF7
[25] = system: HOP-62
[26] = system: OVCAR-3
[27] = system: ACHN
[28] = system: 786-0
[29] = system: SF-268
[30] = system: U-251
[31] = system: SF-539
[32] = system: HCC 2998
[33] = system: TK-10
[34] = system: A498
[35] = system: T47D
[36] = system: KM12
[37] = system: CAKI-1
[38] = system: NCI-H23
[39] = system: NCI/ADR-RES
[40] = system: OVCAR-5
[41] = system: NCI-H226
[42] = system: SK-MEL-5
[43] = system: EKVX
[44] = system: SN12C
[45] = system: OVCAR-8
[46] = system: HL-60
[47] = system: IGROV-1
[48] = system: HT-29
[49] = system: SR
[50] = system: RXF 393
[51] = system: NCI-H460
[52] = system: NCI-H522
[53] = system: SK-OV-3
[54] = system: MDA-MB-231
[55] = system: UACC-62
[56] = system: COLO 205
[57] = system: SNB-19
[58] = system: RPMI-8226
[59] = system: HOP-92

CCCC(=O)OC1CC(n2cc(F)c(=O)[nH]c2=O)OC1CO (centres undefined)
GI50 [1]: 0.0538 µM (active) | GI50 [2]: 1.53 µM (inactive) | GI50 [3]: > 4.49 µM (inactive) | GI50 [4]: 0.362 µM (active) | GI50 [5]: 0.731 µM (active) | GI50 [6]: > 6.89 µM (inactive) | GI50 [7]: > 7.64 µM | GI50 [8]: 0.182 µM (active) | GI50 [9]: 1.74 µM (inactive) | GI50 [10]: 2.79 µM (inactive) | GI50 [11]: > 10 µM (inactive) | GI50 [12]: 0.33 µM (active) | GI50 [13]: 1.48 µM (inactive) | GI50 [14]: > 8.79 µM (inactive) | GI50 [15]: 0.0149 µM (active) | GI50 [16]: > 10 µM (inactive) | GI50 [17]: > 10 µM (inactive) | GI50 [18]: 0.148 µM (active) | GI50 [19]: 0.0355 µM (active) | GI50 [20]: 1.63 µM (inactive) | GI50 [21]: > 3.19 µM (inactive) | GI50 [22]: 0.726 µM (active) | GI50 [23]: > 7.21 µM (inactive) | GI50 [24]: 0.036 µM (active) | GI50 [25]: 0.0583 µM (active) | GI50 [26]: 3.69 µM (inactive) | GI50 [27]: 0.0506 µM (active) | GI50 [28]: 0.342 µM (active) | GI50 [29]: 0.0356 µM (active) | GI50 [30]: > 5.24 µM (inactive) | GI50 [31]: 0.00859 µM (active) | GI50 [32]: 0.0202 µM (active) | GI50 [33]: > 2.67 µM (inactive) | GI50 [34]: 2.07 µM (inactive) | GI50 [35]: > 10 µM (inactive) | GI50 [36]: > 10 µM (inactive) | GI50 [37]: 0.141 µM (active) | GI50 [38]: 0.0682 µM (active) | GI50 [39]: > 2.55 µM (inactive) | GI50 [40]: > 10 µM (inactive) | GI50 [41]: > 10 µM (inactive) | GI50 [42]: 0.329 µM (active) | GI50 [43]: > 10 µM (inactive) | GI50 [44]: 0.317 µM (active) | GI50 [45]: 0.171 µM (active) | GI50 [46]: 0.646 µM (active) | GI50 [47]: > 5.89 µM (inactive) | GI50 [48]: 1.29 µM (inactive) | GI50 [49]: 0.0493 µM (active) | GI50 [50]: > 5.79 µM (inactive) | GI50 [51]: 0.0948 µM (active) | GI50 [52]: 6.34 µM (inactive) | GI50 [53]: 4.08 µM (inactive) | GI50 [54]: > 8.95 µM (inactive) | GI50 [55]: 0.0863 µM (active) | GI50 [56]: 4.71 µM (inactive)

Cc1ccc(S[C@@](C=O)(NC(=O)OCc2ccccc2)C(F)(F)F)cc1
GI50 [1]: 21.2 µM (inactive) | GI50 [2]: 22.5 µM (inactive) | GI50 [3]: 36.8 µM (inactive) | GI50 [57]: 21 µM (inactive) | GI50 [4]: 15.6 µM (inactive) | GI50 [5]: 16.1 µM (inactive) | GI50 [6]: 21.5 µM (inactive) | GI50 [7]: 22.9 µM | GI50 [8]: 21.7 µM (inactive) | GI50 [9]: 28.6 µM (inactive) | GI50 [10]: 28.8 µM (inactive) | GI50 [11]: 44.9 µM (inactive) | GI50 [12]: 29.1 µM (inactive) | GI50 [13]: 18.6 µM (inactive) | GI50 [14]: 26.4 µM (inactive) | GI50 [15]: 21.3 µM (inactive) | GI50 [16]: 25.8 µM (inactive) | GI50 [17]: 21.8 µM (inactive) | GI50 [18]: 31 µM (inactive) | GI50 [19]: 23.2 µM (inactive) | GI50 [20]: 22.8 µM (inactive) | GI50 [21]: 44.3 µM (inactive) | GI50 [22]: 28.4 µM (inactive) | GI50 [23]: 25.3 µM (inactive) | GI50 [24]: 26.7 µM (inactive) | GI50 [25]: 29 µM (inactive) | GI50 [26]: 42 µM (inactive) | GI50 [28]: 20.4 µM (inactive) | GI50 [29]: 22.6 µM (inactive) | GI50 [30]: 17.6 µM (inactive) | GI50 [31]: 24.7 µM (inactive) | GI50 [32]: 37.8 µM (inactive) | GI50 [34]: 65 µM (inactive) | GI50 [35]: 23.8 µM (inactive) | GI50 [36]: 20.8 µM (inactive) | GI50 [37]: 26.1 µM (inactive) | GI50 [38]: 19.5 µM (inactive) | GI50 [39]: 21.4 µM (inactive) | GI50 [58]: 20.6 µM (inactive) | GI50 [40]: 23.2 µM (inactive) | GI50 [41]: 18.6 µM (inactive) | GI50 [42]: 23.7 µM (inactive) | GI50 [43]: 22.3 µM (inactive) | GI50 [44]: 26.7 µM (inactive) | GI50 [45]: 20.7 µM (inactive) | GI50 [46]: 16.5 µM (inactive) | GI50 [47]: 18.5 µM (inactive) | GI50 [48]: 16.9 µM (inactive) | GI50 [49]: 14.5 µM (inactive) | GI50 [50]: 14.4 µM (inactive) | GI50 [51]: 29.9 µM (inactive) | GI50 [53]: 45 µM (inactive) | GI50 [54]: 19.6 µM (inactive) | GI50 [55]: 19.3 µM (inactive) | GI50 [56]: 17 µM (inactive) | GI50 [59]: 22.9 µM (inactive)

O=C1Nc2ccccc2/C1=N/Nc1ccccc1[N+](=O)[O-]
GI50 [1]: 34.4 µM (inactive) | GI50 [2]: 16.5 µM (inactive) | GI50 [3]: 56.1 µM (inactive) | GI50 [57]: 48.5 µM (inactive) | GI50 [4]: 24.3 µM (inactive) | GI50 [5]: 25.9 µM (inactive) | GI50 [6]: 51.4 µM (inactive) | GI50 [7]: 55.5 µM | GI50 [8]: 33.6 µM (inactive) | GI50 [9]: 66.5 µM (inactive) | GI50 [10]: > 100 µM (inactive) | GI50 [11]: 25.5 µM (inactive) | GI50 [12]: 87.5 µM (inactive) | GI50 [13]: 57 µM (inactive) | GI50 [15]: 36.4 µM (inactive) | GI50 [16]: > 100 µM (inactive) | GI50 [17]: 32.1 µM (inactive) | GI50 [18]: 56.9 µM (inactive) | GI50 [19]: 91.6 µM (inactive) | GI50 [20]: > 100 µM (inactive) | GI50 [21]: 29.2 µM (inactive) | GI50 [22]: 49.1 µM (inactive) | GI50 [23]: 75.9 µM (inactive) | GI50 [24]: > 100 µM (inactive) | GI50 [25]: 19.3 µM (inactive) | GI50 [26]: 10.5 µM (inactive) | GI50 [27]: 11.6 µM (inactive) | GI50 [28]: 14.5 µM (inactive) | GI50 [29]: 10 µM (inactive) | GI50 [30]: 15.5 µM (inactive) | GI50 [31]: 9.89 µM (inactive) | GI50 [32]: 44.4 µM (inactive) | GI50 [33]: 69.2 µM (inactive) | GI50 [34]: 32.8 µM (inactive) | GI50 [35]: 38.5 µM (inactive) | GI50 [36]: 33.8 µM (inactive) | GI50 [37]: 21.6 µM (inactive) | GI50 [38]: 16.3 µM (inactive) | GI50 [39]: 17 µM (inactive) | GI50 [58]: 80.7 µM (inactive) | GI50 [40]: 38.3 µM (inactive) | GI50 [41]: 1.67 µM (inactive) | GI50 [42]: 40.9 µM (inactive) | GI50 [43]: 0.706 µM (active) | GI50 [44]: 40.7 µM (inactive) | GI50 [45]: 23.3 µM (inactive) | GI50 [46]: > 100 µM (inactive) | GI50 [47]: 0.185 µM (active) | GI50 [48]: > 100 µM (inactive) | GI50 [49]: 6.62 µM (inactive) | GI50 [50]: 35.6 µM (inactive) | GI50 [51]: 19.9 µM (inactive) | GI50 [52]: 21.8 µM (inactive) | GI50 [53]: 17.1 µM (inactive) | GI50 [54]: 28.4 µM (inactive) | GI50 [55]: 63.8 µM (inactive) | GI50 [56]: 69.7 µM (inactive)
